According to US4778797A, “Organo-silicon compounds, process for the manufacture of same, and anti-tumor agent comprising the compound” (Sanwa Kagaku Kenkyusho Co., Ltd., priority 1984, dated 1988):
Values after ≈ are worked out from the molar mass of the structure shown. Where two headings read alike, the source gives them in different places.

What was measured:
CrJ/CDI female mice = test: Acute toxicity; format: in vivo; settings: oral gavage
Description: (§1) Each of testing compounds suspended in 0.1% P-1570 was orally and forcedly dosed through a gastric probe to CrJ/CDI female mice (21 to 22 g, age of about 5 weeks). An identification number was given to each mouse, and a weighing and observation on general behavior were carried out just before the dosage and each day after the same. Each of died mice was subjected without delay to an autopsy to check the same, more particularly in detail on enterona. All of living mice were killed at 21st day from the dosage to carry out an autopsy for checking the same, more particularly on entrails.
(§2) An LD50 was calculated in accordance with the Leed and Munch's method.
(§3) A similar test was carried out on each controls of 1-[2-[(2-trimethylsilylethyl)thio]ethylcarbamoyl]-5-fluorouracil and 1-hexylcarbamoyl-5-fluorouracil (HCFU) which is one of exemplary anti-tumor agents.

Acute toxicity = format: in vivo, CrJ/CDI female mice; settings: mouse, in vivo; oral gavage, suspended in 0.1% P-1570, female mice, 21 days observation
Description: as §1, §2, §3

KB cells = test: Suppression of KB cell proliferation in vitro; format: cell-based; settings: Homo sapiens, 72 h, 3 days exposure, Trypan Blue dye-exclusion, read-out: KB IC50 (50% inhibition density to tumor cell proliferation)
Description: In a cultivation device (5% CO2, 37° C.), KB cells (1×10^4 cells) were cultivated for 24 hours in a culture tube with 1 ml of Eagle culture medium added 10% ox serum, the used culture medium was thrown away to change with a fresh culture medium (0.9 ml), and then 0.1 ml of a similar culture fluid containing each testing compound prepared by the process as described in the Examples was added to cultivate the same for further 3 days. Thereafter, living cells were dyed with Tripan Blue and measured same through a dye-exclusion method.
A control was treated in a manner similar to the above, except that a culture fluid containing no compound of the invention was added.
50% inhibition density (IC50) to the tumor cell proliferation was decided through the tests between the testing group and the control group to obtain results as shown in following Table 1.

MM-46 adenocarcinoma = test: Anti-tumor action to MM-46 adenocarcinoma; format: in vivo, C3H/He female mice; settings: oral, 250 mg/kg/day × 3 (1st, 5th, 9th day); days to death, testing vs control group
Excerpt: MM-46 adenocarcinoma (1×10^6 cells) was transplanted under skin of C3H/He female mice (age of about 5 weeks), and each of testing compounds was orally dosed at 1st, 5th and 9th day after the transplantation to check days of life on the mice.
T: days to death on testing group, and
C: days to death on control group.

B-16 melanoma = test: Anti-tumor action to B-16 melanoma; format: in vivo, BDF1 female mice; settings: Mus musculus, B16, 504 h, oral, tumor weight at 21st day, read-out: B-16 melanoma Inhibition ratio
Excerpt: B-16 melanoma (1×10^5 cells) was transplanted under skin of BDF1 female mice (age of about 5 weeks), and each of testing compounds was orally dosed at 1st, 5th and 9th day after the transplantation. At 21st day after the transplantation, the mice were killed to measure a weight of the cancerous tumor and to finally determine an inhibition ratio.

Colon-38 carcinoma = test: Anti-tumor action to Colon-38 carcinoma; format: in vivo, BDF1 mice; settings: Mus musculus, 672 h, oral, tumor weight at 28th day, read-out: colon-38 Inhibition ratio
Description: 0.02 ml of 10(W/V)% cell suspension prepared from a solid cancer cell (Colon-38 carcinoma) were transplanted under skin of BDF1 mice (20-21 g, age of about 5 weeks), and each of testing compounds was orally dosed to the mice at 1st, 5th and 9th day after the transplantation. A major and minor axes of the cancerous tumor were measured at 11th, 14th, 21st, 25th and 28th day after the transplantation to calcurate volume of the tumor in accordance with the following.
At 28th day from the transplantation, the mice were killed and each of the cancerous tumors was extracted to measure its weight and to determine an inhibitation ratio in comparison with a non-treated control group.

L-1210 leukemia = test: Anti-tumor action to L-1210 leukemia; format: in vivo, BDF1 female mice; settings: Mus musculus, L1210, oral; for ILS at 250 mg/kg/day: 250 mg/kg/day × 3 (1st, 5th, 9th day); for ILS at 500 mg/kg/day: 500 mg/kg/day × 3 (1st, 5th, 9th day)
Description: L-1210 leukemia cell (1×10^5 cells) was transplanted in a abdominal cavity of BDF1 female mice (20-21 g, age of about 5 weeks), and each of testing compounds was orally dosed in 250 mg/kg or 500 mg/kg at 1st, 5th and 9th day after the transplantation to check days of life of the mice. [formula]

Lewis lung carcinoma = test: Anti-tumor action to Lewis lung carcinoma (primary tumor weight and metastasis); format: in vivo, BDF1 mice; settings: Mus musculus, po, 504 h
Excerpt: Lewis lung carcinoma (1×10^5 cells) was transplanted under skin of right ear of BDF1 mice (age of about 5 weeks), and each of testing compounds was orally dosed 10 times from 1st to 10th day after the transplantation. At 21st day after the transplantation, the mice were killed to measure a weight of the primarly tumor and to extract a lung. The lung was fixed in a conventional manner to count a number of metastasis on cancerous cells with use of a stereomicroscope having a low magnification. An anti-tumor action of each compound was expressed with an inhibition in weight of the primarly tumor and an inhibition of the metastasis.

In the case of `C[Si](C)(C)CCSCCNC(=O)n1cc(F)c(=O)[nH]c1=O` [1-[2-[(2-trimethylsilylethyl)thio]ethylcarbamoyl]-5-fluorouracil, reference compound], the “autopsy findings (ulcer and laxative feces)” value (CrJ/CDI female mice; female mice) is reported as “an ulcer and laxative feces”, the “spasm (general behavior)” value (CrJ/CDI female mice; female mice) is reported as “a spasm was observed in some mice” and the LD50 at 504 h (Acute toxicity) is reported as 1100 mg/kg.

In the case of `C[Si](C)(C)CCCSCCNC(=O)n1cc(F)c(=O)[nH]c1=O` [Example 1, 5-Fluoro-3,4-dihydro-2,4-dioxo-N-[2-[[3-(trimethylsilyl)propyl]thio]ethyl]-1(2H)-pyrimidinecarboxamide], the IC50 (KB cells) is reported as 20 µg/mL (≈ 57.6 µM), the “MM-46 adenocarcinoma T/C × 100” value (MM-46 adenocarcinoma) is reported as 181% and the inhibition in vivo at 125 mg/kg/day (B-16 melanoma; 125 mg/kg/day × 3) is reported as 25.8%. It also gave an inhibition in vivo at 250 mg/kg/day (B-16 melanoma; 250 mg/kg/day × 3) of 73.8%, an inhibition in vivo at 278 mg/kg/day (Colon-38 carcinoma; 278 mg/kg/day × 3) of 95.2% and an ILS at 250 mg/kg/day (L-1210 leukemia; read-out: L-1210 ILS) of 28%. The ILS at 250 mg/kg/day (L-1210 leukemia; read-out: L-1210 Judgement) was 25 to 50%, the ILS at 500 mg/kg/day (L-1210 leukemia; read-out: L-1210 ILS) was 98% and the ILS at 500 mg/kg/day (L-1210 leukemia; read-out: L-1210 Judgement) was 50 to 100%. It also gave an inhibition in vivo at 13 mg/kg/day (Lewis lung carcinoma; 13 mg/kg/day × 10 + Amputation, 21st day, read-out: Inhibition Ratio weight LLC) of 33.2%, an inhibition in vivo at 13 mg/kg/day (Lewis lung carcinoma; 13 mg/kg/day × 10 + Amputation, lung, 21st day, printed in parentheses, read-out: Inhibition Ratio metastasis) of 26.6% and an inhibition in vivo at 13 mg/kg/day (Lewis lung carcinoma; 13 mg/kg/day × 10, 21st day, read-out: Inhibition Ratio weight LLC) of 0%. For the same compound, the inhibition in vivo at 13 mg/kg/day (Lewis lung carcinoma; 13 mg/kg/day × 10, lung, 21st day, read-out: Inhibition Ratio metastasis) was 50.9%, the inhibition in vivo at 26 mg/kg/day (Lewis lung carcinoma; 26 mg/kg/day × 10 + Amputation, 21st day, read-out: Inhibition Ratio weight LLC) was 59.8% and the inhibition in vivo at 26 mg/kg/day (Lewis lung carcinoma; 26 mg/kg/day × 10 + Amputation, lung, 21st day, printed in parentheses, read-out: Inhibition Ratio metastasis) was > 63%. It also gave an inhibition in vivo at 26 mg/kg/day (Lewis lung carcinoma; 26 mg/kg/day × 10, 21st day, read-out: Inhibition Ratio weight LLC) of 51.1%, an inhibition in vivo at 26 mg/kg/day (Lewis lung carcinoma; 26 mg/kg/day × 10, lung, 21st day, read-out: Inhibition Ratio metastasis) of 79.2% and an inhibition in vivo at 52 mg/kg/day (Lewis lung carcinoma; 52 mg/kg/day × 10, 21st day, read-out: Inhibition Ratio weight LLC) of 31.1%. For the same compound, the inhibition in vivo at 52 mg/kg/day (Lewis lung carcinoma; 52 mg/kg/day × 10, lung, 21st day, read-out: Inhibition Ratio metastasis) was 95.7% and the LD50 at 504 h (Acute toxicity) was 1580 mg/kg.

In the case of `C[Si](C)(CCSCCNC(=O)n1cc(F)c(=O)[nH]c1=O)c1ccccc1` [Example 3, N-[2-[[2-(Dimethylphenylsilyl)ethyl]thio]ethyl]-5-fluoro-3,4-dihydro-2,4-dioxo-1(2H)-pyrimidinecarboxamide], the IC50 (KB cells) is reported as 12 µg/mL (≈ 30.3 µM), the “MM-46 adenocarcinoma T/C × 100” value (MM-46 adenocarcinoma) is reported as 205% and the inhibition in vivo at 300 mg/kg/day (B-16 melanoma; 300 mg/kg/day × 3) is reported as 62%. The inhibition in vivo at 315 mg/kg/day (Colon-38 carcinoma; 315 mg/kg/day × 3) was 82.1%, the ILS at 250 mg/kg/day (L-1210 leukemia; read-out: L-1210 ILS) was 38% and the ILS at 250 mg/kg/day (L-1210 leukemia; read-out: L-1210 Judgement) was 25 to 50%. The ILS at 500 mg/kg/day (L-1210 leukemia; read-out: L-1210 ILS) was 82%, the ILS at 500 mg/kg/day (L-1210 leukemia; read-out: L-1210 Judgement) was 50 to 100% and the inhibition in vivo at 29.5 mg/kg/day (Lewis lung carcinoma; 29.5 mg/kg/day × 10, 21st day, read-out: Inhibition Ratio weight LLC) was 20.7%. The inhibition in vivo at 29.5 mg/kg/day (Lewis lung carcinoma; 29.5 mg/kg/day × 10, lung, 21st day, read-out: Inhibition Ratio metastasis) was 57.5%, the inhibition in vivo at 59 mg/kg/day (Lewis lung carcinoma; 59 mg/kg/day × 10, 21st day, read-out: Inhibition Ratio weight LLC) was 0% and the inhibition in vivo at 59 mg/kg/day (Lewis lung carcinoma; 59 mg/kg/day × 10, lung, 21st day, read-out: Inhibition Ratio metastasis) was 95.1%. For the same compound, the LD50 at 504 h (Acute toxicity) was 1500 mg/kg.

`CCCCCCNC(=O)n1cc(F)c(=O)[nH]c1=O` [HCFU, 1-hexylcarbamoyl-5-fluorouracil, reference compound] gave an LD50 (CrJ/CDI female mice; suspended in 0.1% P-1570, female mice, 21 days observation) of 1250 mg/kg.
